Laboratory results: patent US8557823B2, “Family of PFKFB3 inhibitors with anti-neoplastic activities” (Advanced Cancer Therapeutics, LLC, priority 2007, dated 2013)
pIC50: −log10 of the molar value. Converted amounts (≈) assume the structure as drawn.

Assays:
U87MG = assay: MTT assay 48 hours, U87MG; format: cell-based; conditions: Homo sapiens, U-87 MG
Protocol: (§1) The ability of the compounds described herein to kill or inhibit the proliferation of cancer cells was measured using either the MTT assay, the Alamar Blue assay, or the Cell Titer Glow® assay using 48 or 72 hours exposure. […] The procedures are briefly described below. Cells of the desired tumor cell line were plated at 2×10^5 cells/ml in 96 well plates. Twice the indicated concentrations of the compounds of the invention were added to cells the following day in an equal volume of media. 72 hours later, cells were lysed and subjected to ATP determination using the CellTiter Glo-Luminescent Cell Viability Assay kit (Promega, Madison, Wis.). Experiments were done in triplicate. When using the MTT assay or the Alamar blue assay, the experimental conditions are essentially similar; at the end of the incubation period, 20 microl of the MTT solution is added per well and the samples are incubated for an additional four hours, rinsed and the absorbance at 570 nm measured. Results for the inhibition of cells proliferation are reported as IC50 as commonly done (the concentration leading to a 50% inhibition of proliferation of the cell population) and are listed in the Tables below. Table 4 lists the IC50 for the compounds of the invention in several cell lines including Jurkat, Calu-6, NCI-H82, U937, or NCI-H1437 cancer cell lines. Table 5 lists the IC50 of PFK-070 in a panel of 10 cell lines.

SK-BR-3 = assay: MTT assay 48 hours, SK-BR-3; format: cell-based; conditions: Homo sapiens, SK-BR-3, MTT assay
Protocol: as §1

NCI-H1437 = assay: Cancer cell proliferation, Alamar Blue assay 72 hours, NCI-H1437; format: cell-based; conditions: Homo sapiens
Protocol: as §1

Jurkat cells = assay: Inhibition of 2-deoxyglucose uptake, Example 14; format: cell-based; conditions: Homo sapiens, 3 hours
Protocol: Inhibition of PFKFB3 results in inhibiting glycolysis. Several feedback or feedforward activation and inhibition mechanisms exist so that, by a feedback mechanism, inhibiting the activity of PFKFB3 might inhibit glucose uptake by cells. An assay was developed to determine if there was inhibition of glucose uptake following exposure to the compounds on the invention. Briefly, Jurkat cells were plated at 1×10^5/mL in RPMI 1640 supplemented with 10% fetal bovine serum and 50 μg/mL gentamicin sulfate. Cells were immediately treated with vehicle or 0.5 μmol/L of the compound of the invention for 3 hours and subsequently placed in glucose-free RPMI 1640 for 30 min. ^14C-2-deoxyglucose (0.25 μCi/mL; Perkin Elmer) was added for an additional 60 min and cells were then washed three times with ice-cold RPMI 1640 containing no glucose. Cell lysates were collected in 500 μL of 0.1% SDS, and scintillation counts (counts/min) were measured on 400 μL of lysate. Counts were normalized to protein concentration.

Calu-6 = assay: Cancer cell proliferation, Alamar Blue assay 72 hours, Calu-6; format: cell-based; conditions: Homo sapiens
Protocol: as §1

CT26 = assay: MTT assay 48 hours, CT26; format: cell-based, murine; conditions: Mus musculus
Protocol: as §1

BX-PC-3 = assay: MTT assay 48 hours, BX-PC-3; format: cell-based; conditions: Homo sapiens, BXPC-3, BX-PC-3, MTT assay
Protocol: as §1

NCI-H82 = assay: Cancer cell proliferation, Alamar Blue assay 72 hours, NCI-H82; format: cell-based; conditions: Homo sapiens
Protocol: as §1

H22 = assay: MTT assay 48 hours, H22; format: cell-based; conditions: Mus musculus
Protocol: as §1

Jurkat = assay: Cancer cell proliferation, Alamar Blue assay 72 hours, Jurkat; format: cell-based; conditions: Homo sapiens, Jurkat, 72 h
Protocol: as §1

MiaPaca = assay: MTT assay 48 hours, MiaPaca; format: cell-based; conditions: Homo sapiens, MIA PaCa-2
Protocol: as §1

LnCap = assay: MTT assay 48 hours, LnCap; format: cell-based; conditions: Homo sapiens
Protocol: as §1

[1] = Microsomal stability in human liver microsomes; format: in vitro ADME; conditions: 0 min
Protocol: Microsomal stability in vitro in different biologic media (liver microsomes, S9 fraction, hepatocytes) and species is ascertained to evaluate the rate at which a compound undergoes metabolism in the experimental in vitro conditions. […] Experimental conditions are briefly described here: the stability in human liver microsomes of several compounds was done over […] at 37° C. using pooled mixed gender human liver microsomes. These liver microsomes were prepared at 1.0 mg/ml of microsomal protein in a 100 mM potassium phosphate pH 7.4 buffer with 1 mM NADPH. The media was incubated at 37° C. with the compound in solution in DMSO. The concentration of the compound was followed by LC/MS-MS as a function of time. […] Testosterone was used as a positive control. The same experiment was performed with mouse, rat or dog liver microsomes instead of human liver microsomes.

[2] = Solubility in dosing solution Cre:EtOH:Saline; format: physicochemical; conditions: Cremophor:EtOH:Saline 5:5:90, aqueous with cosolvent or surfactant or cyclodextrin, kinetic from dmso stock; 5:5:90 Cremophor:EtOH:Saline, after 24 hours at room temperature
Excerpt: Chemical properties of the compounds of the invention were investigated, mainly the solubility in several solvents and pharmaceutically accepted excipients or dosing solutions and the stability of these solutions. […] The increase in solubility when comparing the effect of chemical substituents is unpredictable and surprising if one compares the solubility values of PFK-070 to PFK-091 and PFK-070 to PFK-141 and 145 in a dosing solution that could be used to treat cancer patients (See Table 8A below). Briefly, selected compounds of the invention are dissolved in a small volume of the solvents/excipients of interest (Cremophor, or Cremophor:etoh or Tween80:etoh) at room temperature and diluted 1:9 in saline and left at room temperature for over 8 or 24 hours. Both the physical (absence of a precipitate) and the chemical stability (less than 5% degradation) of the solutions are measured (observation and HPLC after filtration).

A549 = assay: MTT assay 48 hours, A549; format: cell-based; conditions: Homo sapiens
Protocol: as §1

BT474 = assay: MTT assay 48 hours, BT474; format: cell-based; conditions: Homo sapiens, BT-474
Protocol: as §1

SK-N-SH = assay: MTT assay 48 hours, SK-N-SH; format: cell-based; conditions: Homo sapiens
Protocol: as §1

U937 = assay: Cancer cell proliferation, Alamar Blue assay 72 hours, U937; format: cell-based; conditions: Homo sapiens, U-937
Protocol: as §1

PFKFB3 = PFKFB3 (Homo sapiens, UniProt Q16875); assay: PFKFB3 enzyme-coupled kinetics assay (pyruvate kinase/lactate dehydrogenase, NADH consumption); conditions: 150 μM
PFKFB3, sequence (Q16875 whole entry): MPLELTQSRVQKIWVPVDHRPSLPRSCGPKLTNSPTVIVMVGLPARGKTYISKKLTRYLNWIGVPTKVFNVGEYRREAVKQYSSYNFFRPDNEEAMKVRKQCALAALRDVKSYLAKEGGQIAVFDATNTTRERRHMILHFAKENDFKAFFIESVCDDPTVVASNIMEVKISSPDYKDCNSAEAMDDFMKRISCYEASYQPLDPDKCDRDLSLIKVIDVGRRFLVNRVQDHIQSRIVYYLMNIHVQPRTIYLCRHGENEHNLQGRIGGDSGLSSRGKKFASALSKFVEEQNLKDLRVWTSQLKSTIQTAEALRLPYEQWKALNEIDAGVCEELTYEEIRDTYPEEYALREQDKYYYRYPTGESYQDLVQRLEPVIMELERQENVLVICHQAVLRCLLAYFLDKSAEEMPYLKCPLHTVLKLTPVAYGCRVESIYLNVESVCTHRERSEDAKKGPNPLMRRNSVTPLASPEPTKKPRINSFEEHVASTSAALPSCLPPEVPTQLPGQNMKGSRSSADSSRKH
Protocol: PFKFB3 activity was measured by an enzyme-coupled kinetics assay incorporating pyruvate kinase and lactate dehydrogenase as previously described. […] The assay measures NADH consumption spectrophotometrically as a loss of absorption at 340 nm with stoichiometry of 1 mol ATP: 1 mol NADH consumed. Assays were carried out in 96 well plates at 37° in 200 μL final volume containing 1XPFKFB3 reaction buffer (100 mM Tris-HCl, 100 μM EDTA, 5 mM KH2PO4; pH=7.4), 420 μM phophoenolpyruvate (PEP), 5 mM ATP, 400 μM NADH, 613 units of pyruvate kinase (PK), 1092 units of lactate dehydrogenase (LDH), increasing concentrations of fructose-6-phosphate (40-400 μM), and 15 μg of purified PFKFB3. […] Assays were measured using a BioTek POWERWAVE™ plate reader (BioTek Instruments, Inc., Winooski, Vt., United States of America) in kinetics mode over 15 minute periods to determine kinetic rate of PFKFB3. The enzyme kinetics module for SigmaPlot® 9.0 (SYSTAT Software, Inc., San Jose, Calif., United States of America) was used to calculate the kinetic parameters for PFKFB3 and 1 inhibition (Vmax, Km, and Ki). The Vmax is expressed in specific activity of PFKFB3 as nmol F6P×min^−1×mg^−1. […] The data represented are the mean±STD from triplicate measurements from two independent experiments.

HL-60 leukemia cells = assay: In vitro growth inhibition, HL-60; format: cell-based, human; conditions: 1, 3, 10, 33 μM
Protocol: (§2) The K562, HL-60, MDA-MB231, and melanoma (CRL-11174) human cancer cell lines were purchased from ATCC (American Tissue Type Culture Collection, Manassas, Va., United States of America). HeLa, A549, Lewis Lung Carcinoma, MDA-MB231, and melanoma cells were grown in Dulbecco's Modified Eagle Medium (DMEM) (Hyclone, Logan, Utah, United States of America) supplemented with 10% fetal bovine serum (Hyclone, Logan, Utah, United States of America) and 50 μg/mL gentamicin sulfate (Invitrogen, Carlsbad, Calif., United States of America). The HL-60, K562, and Jurkat cell lines were grown in RPMI-1640 medium (Hyclone, Logan, Utah, United States of America) supplemented with 10% fetal bovine serum and 50 μg/mL gentamicin sulfate. […]
(§3) Cells were collected 48 hours post-treatment, and cell number and viability were determined by trypan blue exclusion. […]

K562 leukemia cells = assay: In vitro growth inhibition, K562; format: cell-based, human; conditions: 1, 3, 10, 33 μM
Protocol: as §2, §3

glycolysis = conditions: cited from earlier work

SMILES	pIC50 (NCI-H1437)	pIC50 (Calu-6)	pIC50 (NCI-H82)	pIC50 (Jurkat)	Mean metabolized (%) [1] [%]	solubility at 24 h [2] [µg/mL]	pIC50 (U937)	inhibition at 0.5 µM (Jurkat cells) [%]	further results
O=C(/C=C/c1ccc2ccccc2n1)c1ccccn1 [ACT-PFK-085, 1-Pyridin-2-yl-3-quinolin-2-yl-propenone]	–	5.16	5.57	5.31	–	–	5.54	31	–
O=C(/C=C/c1ccc(Cl)cc1)c1cccnc1 [Compound 2, 3-(4-chlorophenyl)-1-(3-pyridinyl)-2-propen-1-one]	–	–	–	–	–	–	–	–	kinetic rate of PFKFB3 reduced compared to vehicle (EtOH) (PFKFB3): 39.8%; kinetic rate of recombinant PFKFB3 as % of that with vehicle (EtOH) (PFKFB3): 39.8%; cellular toxicity (HL-60 leukemia cells): dose-dependent cellular toxicity; cellular toxicity (K562 leukemia cells): dose-dependent cellular toxicity
O=CC[C@@H](O)[C@H](O)[C@H](O)CO [Compound 2-DG, 2-deoxyglucose]	–	–	–	–	–	–	–	–	effective concentration of other inhibitors of glycolysis (glycolysis): low mM

The next lines start with results.

pIC50 (NCI-H1437)	pIC50 (Calu-6)	pIC50 (NCI-H82)	pIC50 (Jurkat)	Mean metabolized (%) [1] [%]	solubility at 24 h [2] [µg/mL]	pIC50 (U937)	SMILES	inhibition at 0.5 µM (Jurkat cells) [%]	further results
4.53	5.13	5.40	5.89	0	100 (≈ 362 µM)	5.44	O=C(/C=C/c1ccc2cccc(O)c2n1)c1ccncc1 [ACT-PFK-070, 3-(8-Hydroxy-quinolin-2-yl)-1-pyridin-4-yl-propenone]	45	pIC50 (U87MG): 5.78; pIC50 (SK-BR-3): 5.80; pIC50 (CT26): 5.69; pIC50 (BX-PC-3): 5.93; pIC50 (H22): 5.40; pIC50 (MiaPaca): 6.56; pIC50 (LnCap): 5.89; pIC50 (A549): 5.57; pIC50 (BT474): 6.02; pIC50 (SK-N-SH): 5.84
–	5.48	5.40	5.19	–	–	5.60	O=C(/C=C/c1ccc2ccccc2n1)c1ccccc1 [ACT-PFK-076, 1-Phenyl-3-quinolin-2-yl-propenone]	27	–
5.38	6.70	6.15	6.22	0	200 (≈ 662 µM)	6.40	NC(=O)c1ccc(C(=O)/C=C/c2ccc3ccccc3n2)cc1 [ACT-PFK-091, 4-(3-Quinolin-2-yl-acryloyl)-benzamide]	11	–
